Common to all, as to format: biochemical
Assay [1] deals with T1, amyloglucosidase EC 3.2.1.3 (Aspergillus niger, UniProt P69328).
T1 construct: purchased
In words: Commercial glycosidase screening. To be noted: read-out: % Inhibition at 0.1 mM. Here is the method: (§1) Preliminary biological evaluation of compounds 14 and 15 (at 100 μM inhibitor concentration) was performed toward a panel of 12 commercial glycosidases (α-L-fucosidase EC 3.2.1.51 from Homo sapiens, α-galactosidase EC 3.2.1.22 from coffee beans, β-galactosidases EC 3.2.1.23 from Escherichia coli and Aspergillus oryzae, α-glucosidases EC 3.2.1.20 from yeast and rice, amyloglucosidase EC 3.2.1.3 from Aspergillus niger, β-glucosidase EC 3.2.1.21 from almonds, α-mannosidase EC 3.2.1.24 from Jack beans, β-mannosidase EC 3.2.1.25 from snail, and β-N-acetylglucosaminidases EC 3.2.1.52 from Jack beans and bovine kidney).
(§2) The percentage (%) of inhibition for compounds 14 and 15 toward the corresponding glycosidase was determined by quadruplicate in the presence of 100 μM of the inhibitor on the well. Each enzymatic assay (final volume 0.12 mL) contains 0.01–0.5 units/mL of the enzyme (with previous calibration) and 4.2 mM aqueous solution of the appropriate p-nitrophenyl glycopyranoside (substrate) buffered to the optimal pH of the enzyme. Enzyme and inhibitor were pre-incubated for 5 min at rt, and the reaction started by addition of the substrate. After 20 min of incubation at 37 °C, the reaction was stopped by addition of 0.1 mL of sodium borate solution (pH 9.8). The p-nitrophenolate formed was measured by visible absorption spectroscopy at 405 nm (Asys Expert 96 spectrophotometer). Under these conditions, the p-nitrophenolate released led to optical densities linear with both reaction time and concentration of the enzyme.
(§3) Biological screening towards commercial glycosidases
(§4) α-L-fucosidase EC 3.2.1.51
(§5) α-galactosidase EC 3.2.1.22 […]
(§6) β-glucosidase EC 3.2.1.21
(§7) α-mannosidase EC 3.2.1.24
(§8) β-mannosidase EC 3.2.1.25 […]
(§9) “-“: no inhibition (or less than 15%) detected.

The target in assay [2] is T2, α-galactosidase EC 3.2.1.22 (Coffea arabica, UniProt Q42656).
T2 construct: purchased
In words: Commercial glycosidase screening. The conditions noted are these: coffee beans, read-out: % Inhibition at 0.1 mM. The method, then:
as §1, §2, §3, §4, §5, §6, §7, §8, §9

The test system of assay [3] is β-mannosidase EC 3.2.1.25. The assay is described as follows: Commercial glycosidase screening. To be noted: snail. The method, then:
as §1, §2, §3, §4, §5, §6, §7, §8, §9

The target of another assay is T3, α-galactosidase (Homo sapiens, UniProt P06280).
T3 construct: from leukocytes isolated from healthy donors (controls); from tissue; host or cells: leukocytes from healthy donors, sonicated homogenate
T3 sequence (P06280 32-429): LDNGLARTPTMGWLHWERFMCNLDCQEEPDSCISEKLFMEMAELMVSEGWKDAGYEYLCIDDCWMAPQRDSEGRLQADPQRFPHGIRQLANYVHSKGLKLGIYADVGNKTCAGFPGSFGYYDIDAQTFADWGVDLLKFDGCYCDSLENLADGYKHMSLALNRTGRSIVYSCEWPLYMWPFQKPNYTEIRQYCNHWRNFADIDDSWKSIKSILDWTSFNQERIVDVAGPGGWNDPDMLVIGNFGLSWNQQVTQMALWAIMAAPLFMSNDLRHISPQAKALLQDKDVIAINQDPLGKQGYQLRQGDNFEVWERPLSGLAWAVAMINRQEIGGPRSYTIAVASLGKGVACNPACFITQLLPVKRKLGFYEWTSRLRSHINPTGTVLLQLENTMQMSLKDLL
In words: Human lysosomal glycosidase selectivity screening (leukocyte homogenate). The conditions noted are these: 1 mM, read-out: percentage of inhibition, α-Gal. Here is the method: (§10) In order to avoid undesired inhibitory side effects of a potential new drug, it has to be selective for a given target. The selectivity of the newly synthesized compounds 14, 15, and 33·HCl toward GCase was then investigated, evaluating their inhibition at 1 mM concentration toward six other lysosomal glycosidases (namely, α-and β-mannosidases, α- and β-galactosidases, α-fucosidase, and α-glucosidase) in cell homogenates (leucocytes or lymphocytes) isolated from healthy donors. […] Indeed, only moderate inhibitory activity (ca. 50%) was found toward human β-galactosidase for both piperidines 14 and 15, while negligible inhibitory activity was detected in all other cases.
The effect of 1 mM concentration of 14, 15, and 33·HCl was assayed toward six lysosomal glycosidases other than GCase, namely, α-mannosidase, β-mannosidase, α-galactosidase, β-galactosidase, α-fucosidase from leukocytes isolated from healthy donors (controls) and α-glucosidase from lymphocytes isolated from healthy donors’ flesh blood (controls). […]
μL, Sigma –Aldrich) in acetate buffer (0.1 M, pH 4.5) containing sodium azide (0.02%) were incubated at 37 °C for 1 h. Th e reaction was stopped by addition of sodium carbonate (200 μL; 0.5M, pH 10.7) containing Triton X -100 (0.0025 %), and the fluorescence 4 -methylumbelliferone released by α-galactosidase activity was measured in SpectraMax M2 microplate reader ( λex=365 nm, λem=435 nm; Molecular Devices). […]
α-Fucosidase activity was measured in a flat -bottomed 96 -well plate. […]
α-Glucosidase activity was measured in a flat –bottomed 96 well plate. […] The reaction was stopped by the addition of a solution of sodium carbonate (200 µL; 0.5M, pH 10.7) containing Triton X -100 (0.0025 %), and the fluorescence of 4 -methylumbelliferone released by α-glucosidase activity was measured in […]
Figure S 48. […] The corresponding calculated percentage of inhibition is indicated above each bar.

The target in a further assay is T4, α-mannosidase (Homo sapiens, UniProt O00754).
T4 construct: from leukocytes isolated from healthy donors (controls); from tissue; host or cells: leukocytes from healthy donors, sonicated homogenate
The description is as above. The conditions noted are these: 1 mM, read-out: percentage of inhibition, α-Man. Here is the method:
as §10
The effect of 1 mM concentration of 14, 15, and 33·HCl was assayed toward six lysosomal glycosidases other than GCase, namely, α-mannosidase, β-mannosidase, α-galactosidase, β-galactosidase, α-fucosidase from leukocytes isolated from healthy donors (controls) and α-glucosidase from lymphocytes isolated from healthy donors’ flesh blood (controls). Isolated leukocytes or lymphocytes were disrupted by sonication, and a micro BCA protein assay kit (Sigma-Aldrich) was used to determine the total protein amount for the enzymatic assay, according to the manufacturer’s instructions (for more details, see the Supporting Information section).
Selectivity of compounds 14, 15 and 33.HCl towards lysosomal enzymes.
The effect of 1 mM concentration of 14, 15 and 33.HCl was assayed towards six lysosomal glycosidases other than GCase, namely: α-mannosidase, β-mannosidase, α-galactosidase, β-galactosidase, α-fucosidase from leukocytes isolated from healthy donors (controls) and α-glucosidase from lymphocytes isolated from healthy donors’ flesh blood (controls). Isolated leukocytes or lymphocytes were disrupted by sonication, and a micro BCA protein assay kit (Sigma–Aldrich) was used to determine the total protein amount for the enzymatic assay, according to the manufacturer instructions. […]
Molecular Devices). Inhibition is given with respect to the control (without azasugar). Data are mean SD (n=3). […]
Inhibition is given with respect to the control (without azasugar). Data are mean SD (n=3). […]
(1 picture or pasted object on this page, not shown here) […]
α-Fucosidase activity was measured in a flat -bottomed 96 -well plate. Azasugar solution (3 μL), 4.29 μg/μL leukocytes homogenate 1:3 (7 μL), and substrate 4 -methylumbe lliferyl α-L-fucopyranoside (1.51 mM, 20 μL, Sigma –Aldrich) in Na phosphate/citrate buffer (0.2:0.1, M/M, pH 5.5) were incubated at 37 °C for 1 h. […]
Data are mean SD (n=3). S74 […]
α-Glucosidase activity was measured in a flat –bottomed 96 well plate. Azasugar solution (3 µL), 4.29 µg/µL lymphocytes homogenate (7µL) and 20 µL of substrate solution of 4 -methylumbelliferyl -α-D-glucopyranoside (Sigma -Aldrich) in Na a cetate buffer (0.2 M, pH 4.0) were incubated for 1 h at 37 °C. The reaction was stopped by the addition of a solution of sodium carbonate (200 µL; 0.5M, pH 10.7) containing Triton X -100 (0.0025 %), and the fluorescence of 4 -methylumbelliferone released by α-glucosidase activity was measured in […]
respect to the control (without azasugar). Data are means of 3 values. […]
Figure S 48. Activity of a panel of 6 hu man lysosomal glycosidases in the presence of compounds 14, 15 and 33.HCl (1 mM ). The corresponding calculated percentage of inhibition is indicated above each bar.

Consider three compounds from paper PMC8453635, “Piperidine Azasugars Bearing Lipophilic Chains: Stereoselective Synthesis and Biological Activity as Inhibitors of Glucocerebrosidase (GCase)” (The Journal of Organic Chemistry, 2021).

T4 sequence (O00754 50-1011): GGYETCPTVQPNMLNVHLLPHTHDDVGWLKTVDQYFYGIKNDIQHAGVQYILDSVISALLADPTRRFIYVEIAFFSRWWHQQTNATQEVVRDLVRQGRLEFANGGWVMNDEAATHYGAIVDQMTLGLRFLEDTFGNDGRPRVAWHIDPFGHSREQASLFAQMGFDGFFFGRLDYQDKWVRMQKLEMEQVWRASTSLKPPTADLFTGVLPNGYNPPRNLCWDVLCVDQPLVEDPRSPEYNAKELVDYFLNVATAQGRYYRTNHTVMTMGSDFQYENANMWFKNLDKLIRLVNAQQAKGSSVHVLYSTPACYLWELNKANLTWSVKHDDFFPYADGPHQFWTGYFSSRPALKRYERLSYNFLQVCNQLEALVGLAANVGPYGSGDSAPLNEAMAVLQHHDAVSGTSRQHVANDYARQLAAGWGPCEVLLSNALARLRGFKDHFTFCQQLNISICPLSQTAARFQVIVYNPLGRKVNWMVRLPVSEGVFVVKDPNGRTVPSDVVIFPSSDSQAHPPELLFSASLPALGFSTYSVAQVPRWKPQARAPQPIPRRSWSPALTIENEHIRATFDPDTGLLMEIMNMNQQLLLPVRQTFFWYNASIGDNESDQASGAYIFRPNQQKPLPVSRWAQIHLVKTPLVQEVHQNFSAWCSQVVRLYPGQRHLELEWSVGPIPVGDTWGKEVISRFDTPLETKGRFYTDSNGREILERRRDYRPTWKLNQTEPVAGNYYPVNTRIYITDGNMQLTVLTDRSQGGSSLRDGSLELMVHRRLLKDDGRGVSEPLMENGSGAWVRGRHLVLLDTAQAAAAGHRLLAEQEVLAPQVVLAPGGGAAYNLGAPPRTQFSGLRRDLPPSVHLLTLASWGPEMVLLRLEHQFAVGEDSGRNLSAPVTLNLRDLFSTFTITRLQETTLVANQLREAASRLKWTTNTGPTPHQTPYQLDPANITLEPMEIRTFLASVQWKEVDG
T2 sequence (Q42656 16-378): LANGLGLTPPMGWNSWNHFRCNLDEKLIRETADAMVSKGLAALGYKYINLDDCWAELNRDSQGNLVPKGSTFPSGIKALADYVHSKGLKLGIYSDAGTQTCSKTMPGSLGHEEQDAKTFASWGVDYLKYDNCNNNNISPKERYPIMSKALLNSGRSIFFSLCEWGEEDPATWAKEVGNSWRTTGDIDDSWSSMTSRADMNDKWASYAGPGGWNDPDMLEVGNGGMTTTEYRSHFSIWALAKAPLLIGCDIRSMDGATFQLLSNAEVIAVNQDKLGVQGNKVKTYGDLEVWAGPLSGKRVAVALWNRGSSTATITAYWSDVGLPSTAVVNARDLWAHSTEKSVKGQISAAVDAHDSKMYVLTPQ
T1 sequence (P69328 25-640): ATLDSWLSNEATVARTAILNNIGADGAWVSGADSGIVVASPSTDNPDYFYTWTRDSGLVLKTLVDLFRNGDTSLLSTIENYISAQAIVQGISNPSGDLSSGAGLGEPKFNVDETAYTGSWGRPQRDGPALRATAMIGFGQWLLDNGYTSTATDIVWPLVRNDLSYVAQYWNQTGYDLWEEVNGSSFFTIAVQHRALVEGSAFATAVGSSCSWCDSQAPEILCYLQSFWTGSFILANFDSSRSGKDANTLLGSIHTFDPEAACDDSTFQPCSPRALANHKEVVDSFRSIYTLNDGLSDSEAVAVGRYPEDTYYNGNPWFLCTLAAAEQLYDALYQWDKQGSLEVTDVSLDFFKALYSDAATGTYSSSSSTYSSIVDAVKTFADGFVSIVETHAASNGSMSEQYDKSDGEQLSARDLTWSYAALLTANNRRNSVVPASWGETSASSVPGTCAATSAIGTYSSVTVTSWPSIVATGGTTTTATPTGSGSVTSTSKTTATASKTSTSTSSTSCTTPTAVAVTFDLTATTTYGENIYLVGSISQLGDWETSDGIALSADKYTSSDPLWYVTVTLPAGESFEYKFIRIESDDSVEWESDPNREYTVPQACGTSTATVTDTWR

Consider `CCCCCCCC[C@@H]1[C@@H](O)[C@H](O)[C@H](O)CN1CCCCCCCC` [compound 15, (2R,3R,4R,5R)-1,2-Dioctylpiperidine-3,4,5-triol], for which the inhibition at 100 µM in assay [1] and in assay [2] was under 15% in each case. Besides, the “% Inhibition at 0.1 mM” value in assay [3] is “- (“-“: no inhibition (or less than 15%) detected.)”. For the same compound, the inhibition at 1000 µM turned out to be 8% on α-galactosidase and 7% on α-mannosidase.
Take `CCCCCCCC[C@@H]1[C@@H](O)[C@H](O)[C@H](O)CN1C(CCCCCCC)CCCCCCC.Cl` [compound 33·HCl, (2R,3R,4R,5R)-2-Octyl-1-(pentadecan-8-yl)-piperidine-3,4,5-triol Hydrochloride]: the inhibition at 1000 µM on α-galactosidase stood at 1%.
As to `CCCCCCCC[C@H]1[C@@H](O)[C@H](O)[C@H](O)CN1CCCCCCCC` [compound 14, (2S,3R,4R,5R)-1,2-Dioctylpiperidine-3,4,5-triol], the inhibition at 100 µM in assay [1] and in assay [2] was under 15% each time. Also, in assay [3], the “% Inhibition at 0.1 mM” value is “- (“-“: no inhibition (or less than 15%) detected.)”. The inhibition at 1000 µM on α-galactosidase came out at 9%; at α-mannosidase it was 4%.
